From patent publication US20250319206A1, “CRISPR/CAS GENE EDITING OF NEH4 AND/OR NEH5 DOMAINS IN NRF2” (Christina Care Gene Editing Institute, Inc., priority 2024, published 2025)

Key:
Type in all cases: cell-based, Human
NRF2 gene [1] = assay: Exon skipping analysis of NRF2 cDNA in FaDu and KYSE-410 cells; settings: 72 hours post-transfection, cDNA PCR 5′UTR to exon 5
Protocol: Total RNA was isolated from edited cells using TRIzol reagent and PureLink RNA Mini Kit (Thermo Fisher Scientific, Waltham, MA). Reverse transcription was conducted using the Applied Biosystems High-Capacity RNA-to-cDNA kit (Thermo Fisher Scientific, Waltham, MA). The cDNA was used as the template for PCR amplification with either Phusion Flash or Phusion High-Fidelity PCR master mix (Thermo Fisher Scientific, Waltham, MA) with primers spanning the 5′UTR region through Exon 5 (798 bp) of the NRF2 gene. PCR reactions were purified using Qiagen Qiaquick PCR cleanup columns (Quiagen, Hilden, Germany) according to manufacturer's protocol, measured on a Nanodrop and equally loaded on a 1% agarose gel.
The difference between targeting exon 2 and exon 4 was intriguing, so we wanted to see if a molecular rearrangement, exon skipping, which we had identified previously within the NRF2 gene was at least in part responsible for this difference^33. Since we know NRF2 exon 2 and exon 4 are disrupted by design, and intra-genic changes are the objective of the experiment, we asked if exon skipping could account for the differential response in targeting exon 2 versus exon 4. FIG. 14A represents the potential exon skipping outcomes. For both the FADU and the KYSE-410 cells, at 72 hours post-transfection RNA was converted to cDNA followed by PCR amplification of the NRF2 cDNA (798 bp) spanning the 5′UTR to exon 5. […] The 798 bp is the full transcript while the lower band for sg3 is 531 bp and sg76 is 606 bp, the expected sizes of the removal of exon 2 (267 bp) and exon 4 (192 bp).

NRF2 gene [2] = assay: NRF2 gene editing (indel/frameshift) analysis by NGS and CRISPResso2 in FaDu cells; settings: for knocking out NRF2 (DNA sequence data): exon 4
Protocol: The NRF2 gene-coding sequence was entered into SnapGene and the following gRNAs were selected for targeting exon 2: (sg3) 5′-[…]-3′ (SEQ ID NO:75); as well as two gRNAs targeting Exon 4: (sg76) 5′-[…]-3′ (SEQ ID NO:16), (sg83) 5′-[…]-3′ (SEQ ID NO:24). Based on the gRNA design, synthetic single gRNAs were ordered from Synthego (Menlo Park, California, USA). CleanCap® Cas9 mRNA (5moU) was ordered from TriLink Biotechnologies (San Diego, CA, USA).
Either one million cells were seeded to a 75 cm^2 tissue culture flask or 2.5 million cells were seeded to a 175 cm^2 tissue culture flask 24 hours prior to transfection and allowed to reach 60-80% confluency. On the day of the transfection, cells were treated with Lipofectamine MessengerMAX reagent (Thermo Fisher Scientific, Waltham, MA) bearing 10 μg or 25 μg of Cas9mRNA and 10 μg or 25 μg of sgRNA, suspended in Opti-MEM, per the manufacturer's instructions. 39 μL or 97.5 μL of MessengerMax lipofectamine reagent was diluted in 1.5 mL or 3.75 mL OPTI-MEM medium and vortexed twice was incubated for ten minutes at room temperature, during which time the culture media was replaced with 15 mL or 25 mL of fresh media, as appropriate to the cell line. A total of 20 μg or 50 μg of RNA was then added to the diluted lipofectamine, consisting of 10 μg or 25 μg Cas9 mRNA and 10 μg or 25 μg sgRNA. The suspension was incubated at room temperature for an additional five minutes before being added, in full, to the tissue culture flask, which was then swirled gently to disperse the reagent. […]
Targeted amplicon libraries were prepared using Illumina's 16S metagenomic sequencing library preparation protocol for MiSeq. Genomic DNA was extracted from cells using the Qiagen's DNeasy Blood & Tissue kit (Quiagen, Hilden, Germany) or QuickExtract reagent (Biosearch Technologies). The region surrounding the CRISPR target site for Exon 2 (398 bp) and Exon 4 (402 bp) of the NRF2 gene were amplified using the 2× Phusion Flash PCR master mix (Thermo Fisher Scientific, Waltham, MA). Post amplification, samples were cleaned using AMPure beads and DNA concentration was measured using the Qubit assay (Thermo Fisher Scientific, Waltham, MA). Samples are also run on TapeStation (Agilent Technologies Santa Clara, CA) to verify the presence of the desired amplicon. The samples were indexed using either the IDT for Illumina DNA/RNA UD indexes set A (Illumina San Diego, CA). Samples were again quantified using Qubit and average library size was calculated using the Tapestation amplicon size. Once pooled to the loading concentration, the libraries were sequenced using the MiSeq Reagent kit v2 (Illumina, San Diego, CA). Only the data that passed data QC in Sequencing Analysis Viewer, was analyzed using CRISPResso2 (CRISPResso2 website) to understand gene editing efficiency and frameshift analysis.

KYSE-410 cells = assay: Chemosensitivity testing, CellTiter-Glo 2.0 cell viability, KYSE-410 cells; settings: for chemosensitivity to Cisplatin restored: cisplatin 72 hr; for sensitivity to cisplatin: exon 4 targeting
From the text: The data was plotted with the coefficient of variance.
To evaluate this approach for broad based applications, we executed the same protocol on KYSE-410 cells which originate from the poorly differentiated invasive esophageal squamous cell carcinoma resected from the cervical esophagus of a person prior to treatment^41. First, we confirmed that the DNA sequence of exon 2 and exon 4 was identical and amenable to targeting with CRISPRs sg3, sg76, or sg83 respectively (data not shown). While this may seem like a trivial matter, it is not, particularly with mutator phenotypes in transformed cells. Plated cells were allowed to recover for 24 hours prior to transfection with the same CRISPR complexes as described in FIG. 12. […] These overall levels are generally considered to be a complete genetic disruption of a mammalian gene. The percentage of frameshift mutations created by the action of these guide RNAs mimics those levels seen previously in FADU cells. […] The expression levels of NRF2, NQO1, HMOX1, and GCLC were also assessed, FIG. 13C. […] This analysis further supports that disruption of NRF2 in exon 4 has a higher impact on overcoming chemosensitivity by disrupting its function of activating downstream genes.

[3] = 13 days (two weeks) after transfection

| Substance | exon skipping (NRF2 gene [1]) | editing (NRF2 gene [2]; 72 hr) | editing (NRF2 gene [2]; [3]) | frameshift mutations (of the total indels) (NRF2 gene [2]; exon 2, 72 hours) | total indel population (NRF2 gene [2]; exon 2, 72 hours) | knocking out NRF2 (DNA sequence data) (NRF2 gene [2]) | chemosensitivity to Cisplatin restored (KYSE-410 cells) | sensitivity to cisplatin (KYSE-410 cells) |
| --- | --- | --- | --- | --- | --- | --- | --- | --- |
| sg3: gRNA targeting the DLG motif in exon 2 of NRF2; 5′-TATTTGACTTCAGTCAGCGA-3′ or TGGAGGCAAGATATAGATCT (further chemistry not given here) [reference compound] | second lower band indicative of an exon skipping event | 85.5% | 73.45% | exceeded 76% | exceeded 76% |  |  |  |
| sg76: gRNA targeting exon 4 of NRF2; TCACTTGTTCCTGATATTCC CGG (guide TCACTTGTTCCTGATATTCCCGG; listed as DNA, chemistry not given here) | second lower band indicative of an exon skipping event | 87% | 49.30% |  |  | efficient in knocking out NRF2 at exon 4 | restored | enhanced sensitivity to cisplatin |
| sg83: gRNA targeting exon 4 of NRF2; GTAGCCCCTGTTGATTTAGA CGG (guide GTAGCCCCTGTTGATTTAGACGG; listed as DNA, chemistry not given here) | some level of exon skipping activity is detected but at much lower rate | 86% | 40.95% |  |  | efficient in knocking out NRF2 at exon 4 | restored | enhanced sensitivity to cisplatin |
